Test results taken from the CheMixHub ionic liquid set.

Assay: xn = mol fraction of the nth substance listed
Details: 101.3 kPa

CC[n+]1ccn(C)c1.O=S(=O)([N-]S(=O)(=O)C(F)(F)F)C(F)(F)F + COC(=O)OC
viscosity [mPa·s]
Details | 303.15 K | 308.15 K | 313.15 K
x1 = 0.00265 | 0.567 | 0.534 | 0.504
x1 = 0.005572 | 0.588 | 0.554 | 0.523
x1 = 0.006266 | 0.599 | 0.563 | 0.532
x1 = 0.006515 | 0.598 | 0.563 | 0.531
x1 = 0.008405 | 0.612 | 0.576 | 0.543
x1 = 0.01068 | 0.634 | 0.596 | 0.562
x1 = 0.01231 | 0.648 | 0.609 | 0.573
x1 = 0.01323 | 0.662 | 0.623 | 0.587
x1 = 0.01407 | 0.668 | 0.628 | 0.591
x1 = 0.01462 | 0.671 | 0.63 | 0.594
x1 = 0.01829 | 0.699 | 0.656 | 0.618
x1 = 0.01968 | 0.708 | 0.664 | 0.626
x1 = 0.02012 | 0.713 | 0.669 | 0.63
x1 = 0.02014 | 0.712 | 0.667 | 0.628
x1 = 0.02562 | 0.751 | 0.704 | 0.662
x1 = 0.03021 | 0.769 | 0.72 | 0.676
x1 = 0.03102 | 0.774 | 0.725 | 0.68
x1 = 0.03106 | 0.773 | 0.723 | 0.68
x1 = 0.03348 | 0.79 | 0.739 | 0.694
x1 = 0.03766 | 0.818 | 0.765 | 0.718
x1 = 0.04567 | 0.871 | 0.814 | 0.764
x1 = 0.04728 | 0.881 | 0.824 | 0.773
x1 = 0.05348 | 0.92 | 0.86 | 0.807
x1 = 0.05932 | 0.962 | 0.898 | 0.841
